Reference: ChEMBL document CHEMBL1151002, “Potent, selective, water-soluble benzodiazepine-based CCKB receptor antagonists that contain lipophilic carboxylate surrogates” (Bioorg Med Chem Lett, 1995)
In brackets after ≈: the same amount, converted by molar mass.

Experiments:
[1] = Log D is the log of the ratio of concentrations in each phase obtained from partitioning between octanol and 100 mM KH2PO4 buffer at pH 7.4.; format: physicochemical; details: octanol/100 mM KH2PO4 buffer
[2] = Solubility at a pH 7.4; format: physicochemical; details: buffer, read-out: S
[3] = Ratio between CCKB and CCKA receptor binding affinity was measured by displacement of [125I]CCK from guinea pig cortical membranes and rat pancreatic tissues respectively
[4] = Oral bioavailability in rat; format: ADME, organism-based; details: in vivo, read-out: Bioavailabiility
[5] = tested on: Rattus norvegicus; assay: Compound was evaluated for its penetration into blood-brain barrier measured by its level in rat brain after an intravenous dose of 3 mg/kg after 10 min; format: functional, organism-based; parameters: dose 3 mg/kg
[6] = organism: Rattus norvegicus; assay: In vitro antagonistic activity for single-cell firing in a slice preparation of the rat ventromedial hyphalamic nucleus; format: functional
[7] = tested on: Rattus norvegicus; assay: Compound was evaluated for its penetration into blood-brain barrier measured by its level in rat brain after an intravenous dose of 3 mg/kg after 30 min; format: functional, organism-based; parameters: dose 3 mg/kg
[8] = tested on: Rattus norvegicus; assay: Compound was evaluated for its penetration into blood-brain barrier measured by its level in rat brain after an intravenous dose of 3 mg/kg after 1 min; format: functional, organism-based; parameters: dose 3 mg/kg
[9] = Compound was evaluated for its solubility at a pH 7.4; format: ADME; details: buffer

Compound	logD [1]	solubility [2] [µg/mL]	Selectivity [3]	further results
Cc1cccc(NC(=O)N[C@@H]2N=C(C3CCCCC3)c3ccccc3N(C)C2=O)c1	> 4	< 0.01	6500	–
CN1C(=O)C(NC(=O)Nc2cccc(C(=O)NS(=O)(=O)c3ccccc3)c2)N=C(C2CCCCC2)c2ccccc21 (stereo not given)	1.42	–	19	–
CC(=O)NS(=O)(=O)c1cccc(NC(=O)NC2N=C(C3CCCCC3)c3ccccc3N(C)C2=O)c1 (stereo not given)	0.72	260 (≈ 508 µM)	53	–
CN1C(=O)C(NC(=O)Nc2cccc(C(=O)O)c2)N=C(C2CCCCC2)c2ccccc21 (stereo not given)	0.89	1050 (≈ 2420 µM)	2	–
CC(C)S(=O)(=O)NC(=O)c1cccc(NC(=O)N[C@@H]2N=C(C3CCCCC3)c3ccccc3N(C)C2=O)c1	–	1160 (≈ 2150 µM)	–	–

Second part, led by results:

logD [1]	solubility [2] [µg/mL]	Selectivity [3]	Compound	further results
0.85	740 (≈ 1370 µM)	–	CC(C)S(=O)(=O)NC(=O)c1cccc(NC(=O)NC2N=C(C3CCCCC3)c3ccccc3N(C)C2=O)c1 (stereo not given)	–
2	410 (≈ 698 µM)	–	Cc1ccccc1S(=O)(=O)NC(=O)c1cccc(NC(=O)N[C@@H]2N=C(C3CCCCC3)c3ccccc3N(C)C2=O)c1	–
–	370 (≈ 645 µM)	> 8000	CN1C(=O)[C@H](NC(=O)Nc2cccc(C(=O)NS(=O)(=O)c3ccccc3)c2)N=C(C2CCCCC2)c2ccccc21	–
1.78	50 (≈ 87.2 µM)	–	CN1C(=O)C(NC(=O)Nc2cccc(S(=O)(=O)NC(=O)c3ccccc3)c2)N=C(C2CCCCC2)c2ccccc21 (stereo not given)	bioavailability [4]: 14%; Level [5]: 120 ng/g; Kb [6]: 1.2 nM; Level [7]: 72 ng/g; Level [8]: 222 ng/g
0.34	–	–	CN1C(=O)C(NC(=O)Nc2cccc(C(=O)NS(C)(=O)=O)c2)N=C(C2CCCCC2)c2ccccc21 (stereo not given)	solubility [9]: 1300 µg/mL (≈ 2540 µM); Level [5]: 344 ng/g; Level [7]: 91 ng/g; Level [8]: 836 ng/g
